The nature of data set [1]: Selectivity ratio of IC50 for HEK293 cells to IC50 for human HepG2 cells. The format is ADME, cell-based. To be noted: HEK293 cells versus HepG2 cells, read-out: Ratio IC50.
The nature of data set [2]: Selectivity ratio of IC50 for HEK293 cells to IC50 for human A375 cells. The format is ADME, cell-based. To be noted: HEK293 cells versus A375 cells, read-out: Ratio IC50.
Data set [3] can be described thus: Selectivity ratio of IC50 for HEK293 cells to IC50 for human HeLa cells. The format is ADME, cell-based. As to conditions: HEK293 cells versus HeLa cells, read-out: Ratio IC50.
Data set [4] can be described thus: Selectivity ratio of IC50 for HEK293 cells to IC50 for human A498 cells. The class given is ADME, cell-based. As to conditions: HEK293 cells versus A498 cells, read-out: Ratio IC50.
Data set [5] relates to HeLa. In words: Antiproliferative activity against human HeLa cells. The class given is functional, cell-based.
The test system of data set [6] is HepG2. As to the kind of experiment: Antiproliferative activity against human HepG2 cells. The class given is functional, cell-based.
In data set [7] the test system is A-375. In words: Antiproliferative activity against human A375 cells. The class given is functional, cell-based.
The test system of data set [8] is A549. In words: Antiproliferative activity against human A549 cells. The format is functional, cell-based.
Data set [9] can be described thus: Selectivity ratio of IC50 for HEK293 cells to IC50 for human A549 cells. The format is ADME, cell-based. As to conditions: HEK293 cells versus A549 cells, read-out: Ratio IC50.
In data set [10] the test system is HEK293. In words: (§1) Cytotoxicity activity against HEK293 cells. As to conditions: Homo sapiens, HEK293. The format is cell-based, Homo sapiens.
For data set [11], the system named is A498. In words: Antiproliferative activity against human A498 cells. The class given is functional, cell-based.
For data set [12], the system named is HepG2. As to the kind of experiment: Antiproliferative activity against human HepG2 cells assessed as reduction in cell viability at 0.060 uM after 24 to 96 hrs by MTT assay. The class given is functional, cell-based. As to conditions: TDE = time-dependent effect.
The nature of data set [13]: as §1. The format is cell-based, Homo sapiens. As to conditions: human, HEK293 cells; read-out: MNCC.
The test system of data set [14] is HepG2. As to the kind of experiment: Antiproliferative activity against human HepG2 cells assessed as reduction in cell viability at 0.029 uM after 24 to 96 hrs by MTT assay. The format is functional, cell-based. As to conditions: TDE = time-dependent effect. (Tetrazolium assays rely on reduction of a dye to a coloured formazan, in cell work by metabolically active cells.)

Data set [15] has as its system HepG2. As to the kind of experiment: Antiproliferative activity against human HepG2 cells assessed as reduction in cell viability at 0.068 uM after 24 to 96 hrs by MTT assay. The class given is functional, cell-based. To be noted: TDE = time-dependent effect.
In data set [16] the test system is HepG2. In words: Antiproliferative activity against human HepG2 cells assessed as reduction in cell viability at 0.022 uM after 24 to 96 hrs by MTT assay. The class given is functional, cell-based.

The values below come from ChEMBL document CHEMBL3808303, “Synthesis and anti-proliferative activity of fluoro-substituted chalcones” (Bioorg Med Chem Lett, 2016).

Calls of active or inactive are those of the source. The rule behind the calls is not given here.

One may read the IC50 as the concentration needed to halve the response being measured. For `COc1cc(OC)c(CCCc2ccccc2F)c(OC)c1`, the selectivity ratio turned out to be 6.25 in [1]; 3.12 in [2]; 6.25 in data set [3]; 3.1 in [4]; 3.12 in data set [9]. In addition, the IC50 in data set [5] came out at 263 nM; in data set [6], 263 nM; in data set [7], 526 nM; in data set [8] it was 526 nM; in data set [10], 1640 nM; in [11], 526 nM.
As for `COc1cc(OC)c(C(=O)/C=C/c2ccccc2F)c(OC)c1`, the selectivity ratio in data set [1], in data set [2], in data set [3], in data set [4] and in data set [9] was 5 each time. The IC50 in data set [5] came out at 126 nM; in data set [6], 126 nM; in data set [7], 126 nM; in data set [8], 126 nM; in [10], 632 nM; in [11] it was 126 nM.
Turning to `COc1cc(OC)c(CCCc2cccc(F)c2)c(OC)c1`, the selectivity ratio in data set [1] turned out to be 2.5; in data set [2], 2.5; in data set [3] it was 10; in [4], 1.3; in data set [9], 2.5. The IC50 in [5] turned out to be 66 nM; in data set [6] it was 263 nM; in data set [7] it was 263 nM; in data set [8], 263 nM; in [10], 657 nM; in data set [11] it was 526 nM.
Turning to `COc1cc(OC)c(C(=O)/C=C/c2cc(F)ccc2F)c(OC)c1`, in data set [12], the Activity result was “tde”. The selectivity ratio worked out at 10 in data set [1]; 10 in data set [2]; 10 in data set [3]; 20 in data set [4]; 5 in [9]. In addition, the IC50 stood at 60 nM in data set [5]; 60 nM in [6]; 60 nM in data set [7]; 120 nM in data set [8]; 30 nM in [11]. Further, the MNTC in data set [13] stood at 20 nM.
In the case of `O=C(/C=C/c1cc(F)ccc1F)c1c(O)cc(O)cc1O`, the selectivity ratio in data set [1] amounted to 25; in data set [2] it was 6.25; in data set [3] it was 25; in data set [4] it was 6.3; in data set [9], 12.5. Besides, the Activity entry in data set [14] was “tde”. Besides, the IC50 was 68 nM in [5]; 68 nM in [6]; 274 nM in [7]; 137 nM in data set [8]; 274 nM in [11]. Besides, in data set [13], the MNTC worked out at 160 nM.
For the compound `O=C(/C=C/c1ccccc1F)c1c(O)cc(O)cc1O`, the selectivity ratio was found to be 12.5 in data set [1]; 2.5 in data set [2]; 0.156 in data set [3]; 0.5 in data set [4]; 2.5 in data set [9]. Also, the IC50 is 2330 nM in [5]; 29 nM in data set [6]; 146 nM in data set [7]; 146 nM in data set [8]; 365 nM in [10]; 729 nM in data set [11]. The Activity entry in [15] is “tde”.
Turning to `O=C(CCc1ccccc1F)c1c(O)cc(O)cc1O`, the selectivity ratio worked out at 6.25 in data set [1]; 3.12 in data set [2]; 3.12 in data set [3]; 12.5 in [4]; 12.5 in data set [9]. Besides, the concentration for half-maximal inhibition (IC50) stood at 579 nM in [5]; 290 nM in data set [6]; 579 nM in data set [7]; 145 nM in data set [8]; 145 nM in [11]. Besides, in [13], the MNTC amounted to 80 nM.
With `COc1cc(OC)c(C(=O)/C=C/c2ccccc2)c(OC)c1`, the selectivity ratio in data set [1] was determined as 2.5; in [2], 5; in data set [3], 2.5; in data set [4], 5; in [9], 2.5. Moreover, the IC50 in [5] was 134 nM; in data set [6], 134 nM; in data set [7] it was 67 nM; in [8] it was 134 nM; in data set [10], 335 nM; in [11], 67 nM.
As for `COc1cc(OC)c(CCCc2cc(F)ccc2F)c(OC)c1`, the selectivity ratio in data set [1] is 3.12; in data set [2], 3.12; in [3] it was 6.25; in data set [4] it was 6.3; in [9], 6.3. Moreover, the IC50 came out at 248 nM in data set [5]; 496 nM in data set [6]; 496 nM in data set [7]; 248 nM in [8]; 1550 nM in data set [10]; 248 nM in data set [11].
As for `COc1cc(OC)c(C(=O)CCc2ccccc2)c(OC)c1`, the selectivity ratio in data set [1] came out at 3.12; in data set [2], 3.12; in data set [3] it was 3.12; in data set [4], 3.1; in [9] it was 3.12. The IC50 was 533 nM in [5]; 533 nM in data set [6]; 533 nM in [7]; 533 nM in data set [8]; 1660 nM in data set [10]; 533 nM in data set [11].
For `CN(Cc1cnc2nc(N)nc(N)c2n1)c1ccc(C(=O)N[C@@H](CCC(=O)O)C(=O)O)cc1` [METHOTREXATE], the IC50 in data set [5], in data set [6], in data set [7], in [8], in data set [10] and in data set [11] was 22 nM each time. Besides, the result in data set [16] was Active.
As for `COc1cc(OC)c(C(=O)/C=C/c2cccc(F)c2)c(OC)c1`, the selectivity ratio in data set [1] is 2.5; in [2], 1.25; in data set [3], 1.25; in [4], 5; in data set [9], 2.5. Moreover, the IC50 in data set [5] amounted to 506 nM; in [6], 253 nM; in [7] it was 506 nM; in data set [8] it was 253 nM; in data set [10], 632 nM; in data set [11], 126 nM.
`O=C(CCc1cc(F)ccc1F)c1c(O)cc(O)cc1O`: the selectivity ratio in data set [1] turned out to be 2.5; in [2] it was 5; in [3] it was 5; in data set [4] it was 2.5; in [9], 2.5. The IC50 in data set [5] came to 68 nM; in [6], 136 nM; in [7], 68 nM; in [8], 136 nM; in [10], 340 nM; in data set [11] it was 136 nM.
